Data published in ChEMBL document CHEMBL1212702.

Tested on: MCF7
Experiment: Activity at estrogen receptor expressed in human MCF7 cells assessed as increase in receptor-mediated transcription by ERE-luciferase reporter gene assay relative to estradiol
Format: cell-based
Design: concentration or dose not given beside the values

Oc1ccc(-c2n[nH]c3c(O)cccc23)c(O)c1 was tested. Which Activity did it give?
The Activity was under 50%.

Cn1c(N)nc2ncc(-c3ccccc3)cc21 was tested. Which Activity did it give?
Its Activity is under 50%.

For Oc1ccc(-c2c(-c3ccccc3)nn3c(C(F)(F)F)cc(C(F)(F)F)nc23)cc1, which Activity is on record?
Its Activity is 10%.

How did the Activity turn out when COC(=O)C1=C(C(=O)OC)[C@@H]2O[C@H]1C(c1ccc(O)cc1)=C2c1ccc(O)cc1 was run?
The Activity was 50%.

Which Activity does the source give for CCOC(=O)[C@@H]1[C@H](C(=O)OCC)[C@@H]2O[C@H]1C(c1ccc(O)cc1)=C2c1ccc(O)cc1 here?
Its Activity is 10%.
